Data on 4 molecules can be found in publication PMC3673949, “Small Molecule R1498 as a Well-Tolerated and Orally Active Kinase Inhibitor for Hepatocellular Carcinoma and Gastric Cancer Treatment via Targeting Angiogenesis and Mitosis Pathways” (PLoS ONE, 2013).

A word on the IC50: it is the concentration needed to halve the response being measured.

One series has as its system CNE-2 xenograft. Conditions: CNE-2, 100 mg/kg, every 10 days, intraperitoneal injection; for Final TGI%: day of study termination. An excerpt: The use and care of experimental animal was approved by Institutional Animal Care and Use Committee, Roche R&D Center (China). Tumor cells were inoculated into the right flank of BALB/C nu/nu female nude mice (5∼6 weeks, 16∼18 g, obtained from Sino-British SIPPR/BK Lab. Animal Ltd, Shanghai, China) at optimal density based on our in-house validation study. After the tumor was established and reached 100∼150 mm^3, the mice were randomized into ten mice per group and received treatment according to the schedule. The tumor growth was recorded three times a week with the measurement of length (L) and width (W) by caliper, and calculated as tumor volume (TV, mm^3) = 0.5*L*W*W (mm). […] The tumor regression of individual mouse was defined - the tumor volume at the end was less than the tumor volume when treatment was initiated.

Series [1] has as its system colorectal cancer, breast cancer, melanoma, and leukemia xenografts. As to conditions: 150∼225 mg/kg once daily per oral; cited from earlier work.
In another series the test system is BEL-7402 xenograft. The series is described as follows: Xenograft efficacy study. The class given is in vivo, BALB/C nu/nu nude mice.
The next series has as its system HCCLM3 xenograft. The series is described as follows: Xenograft efficacy study. Conditions: HCCLM3, 12.5 mg/kg twice a day per oral gavage. The class given is in vivo, BALB/C nu/nu nude mice.
The subject of the next series is BEL-7404 xenograft. The series can be described thus: Xenograft efficacy study. Conditions: BEL-7404, 12.5 mg/kg twice a day per oral gavage. The class given is in vivo, BALB/C nu/nu nude mice.
The test system of a further series is BGC-823 xenograft. The series can be described thus: Xenograft efficacy study. The class given is in vivo, BALB/C nu/nu nude mice. As to conditions: BGC-823, 25 mg/kg twice a day per oral gavage.
For another series, the system named is MGC-803 xenograft. The series is described as follows: Xenograft efficacy study. As to conditions: MGC-803, 25 mg/kg twice a day per oral gavage. The class given is in vivo, BALB/C nu/nu nude mice.
A further series concerns HGC-27 xenograft. The series is described as follows: Xenograft efficacy study. The class given is in vivo, BALB/C nu/nu nude mice. As to conditions: HGC-27, 25 mg/kg twice a day per oral gavage.
The test system of another series is SGC-7901 xenograft. The series can be described thus: Xenograft efficacy study. The class given is in vivo, BALB/C nu/nu nude mice.
Another series deals with Raf-1. As to conditions: cited from earlier work.
In series [2] the test system is advanced and metastatic HCC. As to conditions: first line therapy; placebo group 7.9 months; cited from earlier work.
Another series concerns KIT. Conditions: cited from earlier work.
Another series concerns Ret. As to conditions: cited from earlier work.
Setting [3] is: day of study termination (Table S2).

Read-outs that look alike come from different tables or passages of the source.

`O=P1(N(CCCl)CCCl)NCCCO1` (centres unmarked) [Cyclophosphamide, cyclophosphamide]: the “Final TGI%” value with CNE-2 xenograft stood at 58%; in the series on CNE-2 xenograft (listed as cyclophosphamide) it was 60%. Besides, the Body weight changes% in the series with CNE-2 xenograft (before vs after treatment) was -2.1%. Further, in the series with CNE-2 xenograft (mice with regression/group), the “Tumor Regression” value is reported as 0/10.

As for `Cc1cc(Nc2cc(N3CCN(C)CC3)nc(/C=C/c3ccccc3)n2)n[nH]1` [ENMD-2076], the TGI% in [1] is given as around 90%.

`CNC(=O)c1cc(Oc2ccc(NC(=O)Nc3ccc(Cl)c(C(F)(F)F)c3)cc2)ccn1` [Sorafenib, sorafenib, reference compound]: the “Final TGI%” value in the series with BEL-7402 xenograft (BEL-7402, 25 mg/kg twice a day per oral gavage, day of study termination) is recorded as 83%; with HCCLM3 xenograft (day of study termination), 71%; in the series on BEL-7404 xenograft (setting [3]) it was 75%; in the series with BGC-823 xenograft (setting [3]) it was 82%; in the series with MGC-803 xenograft (day of study termination), 92%; with HGC-27 xenograft (day of study termination) it was 83%. The “Final TGI%” value with SGC-7901 xenograft (SGC-7901, 25 mg/kg twice a day per oral gavage, day of study termination (Table S2)) is listed as 95%. Also, the Body weight changes% in the series with BEL-7402 xenograft (BEL-7402, 25 mg/kg twice a day per oral gavage, before vs after treatment) was -16%; in the series with HCCLM3 xenograft (before vs after treatment), 4.4%; in the series on BEL-7404 xenograft (before vs after treatment), -4.2%; in the series on BGC-823 xenograft (before vs after treatment) it was -3.5%; in the series with MGC-803 xenograft (before vs after treatment), -2.4%; with HGC-27 xenograft (before vs after treatment) it was -5.5%. In the series with SGC-7901 xenograft (SGC-7901, 25 mg/kg twice a day per oral gavage, before vs after treatment), the Body weight changes% is recorded as -18%. For the same molecule, the “Tumor Regression” value is on record as 1/10 in the series on BEL-7402 xenograft (BEL-7402, 25 mg/kg twice a day per oral gavage, mice with regression/group); 0/10 in the series on HCCLM3 xenograft (mice with regression/group); 0/10 in the series on BEL-7404 xenograft (mice with regression/group); 0/10 with BGC-823 xenograft (mice with regression/group); 2/10 with MGC-803 xenograft (mice with regression/group); 0/10 with HGC-27 xenograft (mice with regression/group). Further, the “Tumor Regression” value in the series with SGC-7901 xenograft (SGC-7901, 25 mg/kg twice a day per oral gavage, mice with regression/group) is on record as 2/10. Further, the “percentage of body weight loss” value in the series on BEL-7402 xenograft (BEL-7402 model, 25 mg/kg twice daily per oral, termination day) is “exceeded 15%”; in the series on SGC-7901 xenograft (SGC-7901 model, 25 mg/kg twice daily per oral, termination day), “exceeded 15%”. The IC50 with Raf-1 is […]. The median survival time in [2] was 10.7 months.

For the molecule `CNC(=O)c1cc(Oc2ccc(NC(=O)Nc3ccc(Cl)c(C(F)(F)F)c3)c(F)c2)ccn1` [regorafenib], the half-maximal inhibitory concentration (IC50) with KIT is 7 nM; in the series on Ret it was 1.5 nM.
